Results on ten compounds are retold here after patent US9382257B2, “Substituted pyrrolo[2,3-b]pyrazines as serine/threonine kinase inhibitors” (Genentech, Inc., priority 2002, dated 2016).

T1 sequence (P28482 8-360): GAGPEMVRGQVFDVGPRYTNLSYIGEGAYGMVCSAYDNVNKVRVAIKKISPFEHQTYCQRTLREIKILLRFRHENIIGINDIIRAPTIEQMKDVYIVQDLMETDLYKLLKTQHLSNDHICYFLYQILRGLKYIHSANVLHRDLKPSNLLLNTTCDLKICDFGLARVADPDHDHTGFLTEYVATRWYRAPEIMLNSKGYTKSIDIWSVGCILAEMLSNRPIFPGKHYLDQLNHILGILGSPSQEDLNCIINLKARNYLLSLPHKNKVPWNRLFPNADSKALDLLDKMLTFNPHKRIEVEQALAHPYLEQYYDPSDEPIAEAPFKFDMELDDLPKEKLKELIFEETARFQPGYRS
T2 sequence (P28482 8-360): as above

The first test concerns the target T1, human ERK-2 (Homo sapiens, UniProt P28482).
T1 construct: n-terminal 6-His fusion protein in E. coli and corresponding to aa 8-360; 6-His (N); made in house; host or cells: E. coli
The test can be described thus: Labchip Kinase ERK Assay (Example 3). It counts as biochemical. The note with it: LabChip Erk Assay (footnote 2), 25 μM ATP, Caliper LabChip 3000; read-out: ERK Inhibition IC50. As for the experimental part: Compounds were tested in an enzymatic assay using human ERK-2 recombinantly expressed as an n-terminal 6-His fusion protein in E. coli and corresponding to aa 8-360. The substrate used was 5FAM-IPTSPITTTYFFFKKK-COOH (Caliper cat #760352). Test compounds were diluted in DMSO in 3-fold serial dilutions at 100× final concentrations. […] The assay was run at ambient temperature in a white 384-well polypropylene plate (Nunc, Inc of Naperville, Ill.; Cat. 267462) for 60 minutes then stopped by addition of EDTA. Percent substrate phosphorylated was determined by microfluidic separation using a Caliper LabChip 3000 instrument. Percent inhibition was plotted against compound concentration and IC50 values were determined using a four-parameter fit.
Turning to `Cc1cc(-c2cnc3[nH]cc(-c4cnn(Cc5cccc(F)c5)c4)c3n2)ccn1` [I-12, 7-[1-(3-fluoro-benzyl)-1H-pyrazol-4-yl]-2-(2-methyl-pyridin-4-yl)-5H-pyrrolo[2,3-b]pyrazine], the concentration for half-maximal inhibition (IC50) is 22.1 nM. Same read-out and setting: with `Cc1nn(C)c(C)c1-c1cnc2[nH]cc(-c3cnn(Cc4ccccc4)c3)c2n1` [I-13, 7-(1-benzyl-1H-pyrazol-4-yl)-2-(1,3,5-trimethyl-1H-pyrazol-4-yl)-5H-pyrrolo[2,3-b]pyrazine] the figure was 105 nM. With `Cc1noc(C)c1-c1cnc2[nH]cc(-c3cnn(Cc4ccccc4)c3)c2n1` [I-14, 7-(1-benzyl-1H-pyrazol-4-yl)-2-(3,5-dimethyl-isoxazol-4-yl)-5H-pyrrolo[2,3-b]pyrazine], the concentration for half-maximal inhibition (IC50) turned out to be 110 nM. Same read-out and setting: the result for `c1ccc(Cn2cc(-c3c[nH]c4ncc(-c5ccc6cn[nH]c6c5)nc34)cn2)cc1` [I-19, 7-(1-benzyl-1H-pyrazol-4-yl)-2-(1H-indazol-6-yl)-5H-pyrrolo[2,3-b]pyrazine] reads 343 nM. Still for that read-out and setting: the result for `Cc1[nH]ncc1-c1cnc2[nH]cc(-c3cnn(Cc4cccc(OC(F)(F)F)c4)c3)c2n1` [I-22, 2-(5-methyl-1H-pyrazol-4-yl)-7-[1-(3-trifluoromethoxy-benzyl)-1H-pyrazol-4-yl]-5H-pyrrolo[2,3-b]pyrazine] reads 14.9 nM; that for `c1cncc(Cn2cc(-c3c[nH]c4ncc(-c5ccncc5)nc34)cn2)c1` [I-23, 2-pyridin-4-yl-7-(1-pyridin-3-ylmethyl-1H-pyrazol-4-yl)-5H-pyrrolo[2,3-b]pyrazine], 65.8 nM; that for `Cc1cc(-c2c[nH]c3ncc(-c4ccncc4)nc23)cnc1F` [II-1, 7-(6-fluoro-5-methyl-pyridin-3-yl)-2-pyridin-4-yl-5H-pyrrolo[2,3-b]pyrazine], 53.1 nM. Take `Cc1cc(-c2c[nH]c3ncc(-c4ccncc4)nc23)cnc1Cl` [II-6, 7-(6-chloro-5-methyl-pyridin-3-yl)-2-pyridin-4-yl-5H-pyrrolo[2,3-b]pyrazine]: the IC50 was determined as 47.8 nM.

Another test addresses T2, human ERK-2 (Mitogen Activated Kinase 1) (Homo sapiens, UniProt P28482).
T2 construct: n-terminal 6-His fusion protein in E. coli and corresponding to aa 8-360; 6-His (N); made in house; host or cells: E. coli
The test can be described thus: ERK-2 Enzymatic Assay (Example 2). As to conditions: Omnia peptide S/T17, 25 μM ATP, read-out: ERK Inhibition IC50. In kind it is biochemical. Here is the method: Compounds were tested in an enzymatic assay using human ERK-2 (Mitogen Activated Kinase 1), recombinantly expressed as an n-terminal 6-His fusion protein in E. coli and corresponding to aa 8-360. The substrate used was the fluorescent Omnia peptide S/T17 (Invitrogen of Carlsbad, Calif.; Cat. KNZ1171C). Test compounds were diluted in DMSO in 3-fold serial dilutions at 100× final concentrations. […] The assay was run at ambient temperature in a white 384-well polypropylene plate (Nunc, Inc of Naperville, Ill.; Cat. 267462) collecting data every 50 seconds for approximately 30 minutes on an Envision plate reader (PerkinElmer, Inc. of Waltham, Mass.); Excitation 340 nm/Emission 495 nm. The data collected from each well was fit to a straight line and the resulting rates were used to calculate percent of control. Percent of control was plotted against compound concentration and IC50 values were determined using a four-parameter fit. Representative date is in TABLE 2 (infra).
On to `Cc1[nH]ncc1-c1cnc2[nH]cc(-c3ccc(OCC4CC4)nc3)c2n1` [II-8, 7-(6-cyclopropylmethoxy-pyridin-3-yl)-2-(5-methyl-1H-pyrazol-4-yl)-5H-pyrrolo[2,3-b]pyrazine], for which the IC50 turned out to be 46.7 nM. `Cn1nccc1C(=O)NCc1cncc(-c2c[nH]c3ncc(-c4cn[nH]c4)nc23)c1` [II-9, 2-methyl-2H-pyrazole-3-carboxylic acid {5-[2-(1H-pyrazol-4-yl)-5H-pyrrolo[2,3-b]pyrazin-7-yl]-pyridin-3-ylmethyl}-amide]: the half-inhibitory concentration (IC50) amounted to 144 nM.

Another test concerns PMA-stimulated P90RSK(Ser380) phosphorylation in HepG2 cells. The experiment in a line: Cellular P90RSK(Ser380) Phosphorylation Assay (Example 4). In kind it is cell-based. The note with it: Homo sapiens, 1.5 hour compound incubation, PMA 100 ng/mL, normalized to GAPDH, read-out: RSK Inhibition IC50. Here is the method: Cellular P90RSK(Ser380) Phosphorylation Assay
Inhibition of PMA-stimulated P90RSK(Ser380) phosphorylation was determined by the following in vitro cellular mechanistic assay, which comprises incubating cells with a compound for 1.5 hours and quantifying fluorescent pP90RSK(Ser380) signal on fixed cells and normalizing to GAPDH signal.
Materials and Methods: HepG2 cells were obtained from ATCC and grown in DMEM supplemented with 10% fetal bovine serum. Cells were plated in 96-well plates at 35,000 cells/well and allowed to attach overnight at 37° C./5% CO2. Diluted compounds were then added at a final concentration of 0.5% DMSO. After 1.5 hour compound incubation, cells were stimulated with the addition of PMA (phorbol 12-myristate 13-acetate) at a final concentration of 100 ng/mL; the PMA stimulation was a 30-minute incubation at 37° C./5% CO2. After the 30-minute PMA stimulation, cells were washed with PBS and fixed in 3.7% formaldehyde in PBS at room temperature for 15-20 minutes. This was followed by another wash in PBS and then permeabilization in 100% MeOH at room temperature for 10-15 minutes. Following the permeabilization incubation, cells were washed in PBS/0.05% Tween-20, followed by a block in Odyssey blocking buffer (LI-COR Biosciences) for at least 1 hour. Antibodies to phosphorylated P90RSK(Ser380) (Cell Signaling #9335, rabbit monoclonal) and GAPDH (Fitzgerald 10R-G109a, mouse monoclonal) were added to the cells and incubated overnight at 4° C. pP90RSK(Ser380) antibody was used at a 1:250 dilution; GAPDH was used at a 1:10,000 dilution. After washing with PBS/0.05% Tween-20, the cells were incubated with fluorescently-labeled secondary antibodies (Anti-rabbit-Alexa Flour680, Invitrogen Cat#A21109; Anti-mouse-IRDye800CW, Rockland Inc. Cat#610-131-121) for 1 hour. Both secondary antibodies were used at a 1:1000 dilution. Cells were then washed and analyzed for fluorescence at both wavelengths using the Odyssey Infrared Imaging System (LI-COR Biosciences). Phosphorylated P90RSK(Ser380) signal was normalized to GAPDH signal. Representative date is in TABLE 2 (infra).
Regarding `Cc1[nH]ncc1-c1cnc2[nH]cc(-c3ccc(OCC4CC4)nc3)c2n1` [II-8, 7-(6-cyclopropylmethoxy-pyridin-3-yl)-2-(5-methyl-1H-pyrazol-4-yl)-5H-pyrrolo[2,3-b]pyrazine], the IC50 was found to be 5900 nM. The same measure, in the same setting: the result for `Cn1nccc1C(=O)NCc1cncc(-c2c[nH]c3ncc(-c4cn[nH]c4)nc23)c1` [II-9, 2-methyl-2H-pyrazole-3-carboxylic acid {5-[2-(1H-pyrazol-4-yl)-5H-pyrrolo[2,3-b]pyrazin-7-yl]-pyridin-3-ylmethyl}-amide] reads no less than 50000 nM.

One may read the IC50 as the point on the concentration scale where inhibition reaches its midpoint.
